The results in this text go back to PubChem BioAssay AID463229 (Broad Institute, 2010).

SMILES strings stand for the structures. “And” between values parts separate entries of the source, which are not always exact repeats. Identical values can stand only once. A value given as a limit tells only on which side of the number the result lay.

The test has as its system INS-1E rat beta cells, no cytokines, CellTiter-Glo ATP, 48 h. Briefly: cytokine-free beta-cell viability effect – INS-1E rat cells, ATP luminescence, cherry pick, counter-screen for beta-cell apoptosis protection project, dose response (AID 463229). (In general: A counterscreen serves to expose hits that act by an unwanted route or on another target.)
On to `O=C(N=Nc1c(O)n(Cc2ccccc2)c2ccccc12)c1cc2ccccc2cc1O`, for which the AC50 (in general, the concentration at which the activity in the assay is half-maximal) was 8.07 µM. The result for `N#CC(C#N)=NNc1ccc(-n2ccc(C(F)(F)F)n2)cc1` reads 7.8 µM; that for `COc1nc(Nc2nc3ccccc3c(=O)[nH]2)nc2ccc(C)cc12`, 2.31 µM; that for `Cc1csc2c(N3CCN(C(=O)c4ccc(C(C)(C)C)cc4)CC3)ncnc12`, 14.9 µM. For `Nc1c(N(CCC2=CCCCC2)C(=O)COc2ccc(F)cc2)c(=O)[nH]c(=O)n1Cc1ccccc1`, the half-maximal activity concentration (AC50) was 4.49 µM. In the case of `O=C(NCCOc1cccnc1)c1ccc(OC2CCN(Cc3ccccn3)CC2)cc1` it was < 0.195 µM. Take `Cc1cc(N/N=C/c2ccc(O)cc2O)nc(-n2nc(C)cc2C)n1`: the AC50 was 6.67 µM.

For `CC1=NN(c2nc3ccccc3[nH]2)C(=O)C1Cc1ccccc1` (configuration not stated), the AC50 is 2.1 µM. The result for `COc1cccc(CN2CCC(N(CCc3ccccc3)Cc3ccccc3)CC2)c1OC` reads 14.7 µM; that for `COc1ccccc1CNc1ncnc2sccc12`, 11.9 µM. The result for `O=C(c1cc(COc2cccc3cnccc23)on1)N1CCCC(CCCO)C1` (configuration not stated) reads 2.04 µM; that for `CC(C)(C)OC(=O)NCCCCCc1cn([C@@H](CO)C(=O)NCCCCCCCCCCC(=O)N2CCN(C(=O)OC(C)(C)C)CC2)nn1`, 7.05 µM. The result for `CN1/C(=C\P(=O)(N(C)C)N(C)C)C(C)(C)c2ccccc21` reads 4.86 µM; that for `Cc1ccccc1/C=N/Nc1ccnc2cc(Cl)ccc12`, 6.91 µM; that for `CCCCOc1ccc(C(=O)NNC(=S)NC(=O)CC)cc1`, 14.3 µM. With `CCCCCCC[N+](CC)(CC)CCCCc1ccc(Cl)cc1`, the AC50 is 4.93 µM.

For `N#CC(C#N)=C(Nc1ccc(F)cc1)SCc1cccc(F)c1`, the AC50 was 5.08 µM. For the compound `CC[C@H]1CN2CCc3cc(OC)c(OC)cc3[C@@H]2C[C@@H]1C[C@H]1NCCc2cc(OC)c(OC)cc21`, the AC50 is 9.67 µM. In the case of `Oc1c(C(Nc2ccccn2)c2ccccn2)ccc2cccnc12` (configuration not stated) it was 6.16 µM. The result for `CC(C)c1ccc2c(c1)C(N1CCNCC1)Cc1ccc(F)cc1S2` (configuration not stated) reads 14.6 µM; that for `Cc1nn(C)c(C)c1CN(C)S(=O)(=O)c1ccc2ccccc2c1`, 3.02 µM.

For the compound `O=C(Nc1ccc([N+](=O)[O-])cc1)Nc1nc(-c2ccc(Cl)s2)cs1`, the AC50 is 1.88 µM. `Nc1nonc1-n1nnc(C(=O)N/N=C/c2ccccc2O)c1CN1CCCC1`: the AC50 was 22.9 µM. In the case of `CCN(CC)c1ccc(C(=O)N/N=C/c2ccccc2OC(F)F)cc1` it was 15.6 µM; in that of `O=C(Nc1nc(-c2ccccc2)cs1)c1ccccc1NS(=O)(=O)c1ccc(F)cc1`, 4.56 µM. In the case of `CC(C)(C)c1cc([N+](=O)[O-])cc(C(C)(C)C)c1O` it was 2.8 µM; in that of `N=c1c2c(-c3ccccc3)c(-c3ccccc3)n(Cc3ccco3)c2ncn1CCCN1CCOCC1`, 16.2 µM.

Consider `COc1ccc(N/N=C(/N=Nc2nc(C)cc(=O)[nH]2)c2ccccc2)cc1`, for which the AC50 is 1.78 µM. Take `Cc1nnc(N=c2ssnc2Cl)o1`: the AC50 is 13.6 µM. In the case of `Oc1[nH]c2ccc(Br)cc2c1N=NC(=S)N1CCOCC1` it was 2.39 µM; in that of `COC(=O)c1ccc2c(c1)C(C)(C)C(/C=C/c1ccc(OC)c(OC)c1OC)=[N+]2C`, 2.16 µM; in that of `C#CCn1c(=NC(=O)c2ccc(S(=O)(=O)N3CCc4ccccc4C3)cc2)sc2cc(S(N)(=O)=O)ccc21`, 3.64 µM. In the case of `c1ccc(-c2cc(-c3ccccc3)[n+](-c3ccccc3)c(-c3ccccc3)c2)cc1` it was 2.65 µM.

Turning to `CCC1(OC(=O)CN)C(=O)OCc2c1cc1n(c2=O)Cc2cc3ccccc3nc2-1` (configuration not stated), the AC50 is < 0.195 µM. The result for `COC(=O)[C@@H](Cc1ccccc1)N(Cc1ccccc1)S(=O)(=O)N(Cc1ccccc1)[C@H](Cc1ccccc1)C(=O)OC` reads 4.27 µM.

With `COc1ccc(-c2c[n+]3c(n2-c2ccccc2)CCCCC3)cc1`, the AC50 is 2.35 µM. The result for `Cc1cc(N2CCCC2=O)cc(C)c1S(=O)(=O)NCCOc1ccc(C(C)(C)C)cc1` reads 3 µM. For the compound `COc1cnc(-c2ccccn2)nc1Sc1ccc(C)cc1`, the AC50 was 17.2 µM. The result for `CCc1ccc(C(=O)NNc2cc(Cl)ccc2Cl)cc1` reads 8 µM. The result for `Cc1ccc(C(=O)Nc2cccc3[nH]c(C(F)(F)F)nc23)cc1` reads 13.3 µM. The result for `CCOc1ccc(/C=N/NC(=O)c2[nH]ncc2Br)c(O)c1` reads 3.66 µM; that for `Cc1cc(C)nc(N/N=C/c2cc(Br)ccc2O)n1`, 12.6 µM; that for `O=[N+]([O-])c1ccc(O)c(/C=N/Nc2ccccn2)c1`, 1.84 µM.

Regarding `O=[N+]([O-])c1ccc(NC(=S)NCCc2ccc(F)cc2)cc1`, the AC50 is 7.46 µM. The result for `O=C(Nc1ccc(OC(F)F)c(Cl)c1)C(c1ccccc1)c1ccccc1` reads 13 µM; that for `C=CCC1(CC=C)CCCN1C(=O)c1cc(COc2ccc(C)nc2)on1`, 2.54 µM; that for `CCc1nc(N2CCN(C(C)=O)CC2)c2c3c(sc2n1)CC(C(C)(C)C)CC3` (configuration not stated), 2.79 µM. The result for `Cc1cc(C(C)(C)CC(C)(C)C)ccc1OCCOCC[N+](C)(C)Cc1ccccc1` reads 4.07 µM. In the case of `[O-][N+]1=c2ccc(Nc3ccccc3)cc2=NC12CCCCC2` it was 12.5 µM; in that of `CN(C)CCOc1ccc(-c2c(-c3ccccc3)sc3ccccc23)cc1`, 12.8 µM; in that of `Nc1nc(-c2ccccn2)nc(N)c1Cc1c(F)cccc1Cl`, 8.86 µM. In the case of `Cc1ccc(C(C)C)c(OCc2ccc(C(=O)N/N=C/c3cccc(O)c3O)cc2)c1`, the AC50 was 7.27 µM. The result for `O=C1C(C2=NC(c3ccccn3)C3C(=O)N(c4ccc(OC(F)(F)F)cc4)C(=O)C23)=C(O)c2ccccc21` (configuration not stated) reads 5.94 µM. For `Cc1ccc(NC(=S)N/N=C/c2ccc([N+](=O)[O-])s2)cc1`, the AC50 was 6.79 µM. In the case of `COc1cc(-c2nc3ccc(C)cn3c2NCc2ccccc2)ccc1SC1CCCCC1`, the concentration at half-maximal activity (AC50) is 5.49 µM. In the case of `Oc1ccc(/C=N/Nc2ncc(Br)cn2)c(O)c1` it was 3.83 µM; in that of `CC(C)(C)c1nnc(N/N=C/c2cc(Br)ccc2O)n(N)c1=O`, 3.97 µM. In the case of `NC(=NCCCCCCN=C(N)/N=C(\N)Nc1ccc(Cl)cc1)/N=C(\N)Nc1ccc(Cl)cc1` it was 5 µM and 5.71 µM. For the compound `CCN(CC)c1ccc(/C=N/NC(=O)c2nnn(-c3nonc3N)c2C(C)C)c(O)c1`, the concentration at half-maximal activity (AC50) was 1.16 µM.

In the case of `CCCCCc1ccc(OCCCC[n+]2ccc(C)cc2)c(CCCCC)c1`, the AC50 is 2.34 µM. The result for `CC(Oc1ccc(Cl)cc1Cl)c1nc(-c2ccc(NC(=O)c3cccnc3)cc2)no1` (configuration not stated) reads 0.906 µM; that for `Cn1nc(C(C)(C)C)cc1C(=O)NCc1cc(F)cc2c1OCOC2`, 5.86 µM.

As for `COc1ccc(O)c(/C=N/Nc2nc(Nc3ccccc3)nc(-n3nc(C)cc3C)n2)c1`, the AC50 is 11.3 µM.

On to `CCOC(=O)CS(=O)(=O)c1nc(-c2ccccc2)cc(C(F)(F)F)n1`, for which the AC50 was 8.1 µM. `Cc1cc(-c2ccccc2)n(-c2cc(N/N=C/c3ccccc3O)ncn2)n1`: the AC50 was 7.17 µM.

Take `Cc1nc2c(-c3ccc(Cl)cc3)c(C)[nH]n2c(=O)c1Cc1ccccc1`: the AC50 is 5.46 µM. The result for `CC[C@]1(c2ccccc2OC)ON(c2ccccc2C(F)(F)F)C1=O` reads 4.55 µM.

In the case of `CCCC(=O)NC(c1ccc(C)cc1)c1ccc2cccnc2c1O` (configuration not stated), the AC50 was 1.99 µM. Regarding `c1ccc(CNc2nc(NCc3ccccc3)c3ccccc3n2)cc1`, the AC50 is 11.1 µM. The result for `CCN1/C(=C/C=C/c2sc3ccccc3[n+]2CC)Sc2ccccc21` reads < 0.195 µM. The result for `CCOC(=O)/C(=C\c1ccccc1)C(=O)c1cc(C(C)=O)c(Nc2ccccc2)s1` reads 6.53 µM; that for `C=CCc1cccc(/C=N/NC(=O)CCC(=O)Nc2ccc(F)cc2)c1O`, 10.2 µM; that for `CC(C)(C)OC(=O)NCc1ccc(NC(=O)c2nc[nH]c2C(=O)NCCCCNC(=O)c2[nH]cnc2C(=O)Nc2ccc(CNC(=O)OC(C)(C)C)cc2)cc1`, 5.34 µM. `C#CCOCCOCCOCCNc1nc(N2CCN(C(=O)CCCCCCCCCCNC(=O)[C@H](CCCCN)n3cc(CCO)nn3)CC2)nc(N2CCN(C(=O)CCCCCCCCCCNC(=O)[C@H](CCCCN)n3cc(C[C@@H](C)CC)nn3)CC2)n1`: the AC50 is 10.6 µM.

Regarding `CCC(=O)NC(c1ccc(Cl)cc1Cl)c1ccc2cccnc2c1O` (configuration not stated), the AC50 is 2.34 µM. The result for `CCN(CC)C(=O)c1cc([N+](=O)[O-])cc2c1-c1ccc([N+](=O)[O-])cc1C2=C(C#N)C#N` reads 9.06 µM; that for `CCCC(=O)NC(c1ccc(OC)cc1)c1ccc2cccnc2c1O` (configuration not stated), 2.4 µM. In the case of `COc1cc(CC(=O)Nc2nc(-c3ccc(F)c(F)c3)cs2)cc(OC)c1OC` it was 7.17 µM; in that of `COc1ccc(C)cc1Nc1n[n+](-c2ccccc2)c(-c2ccc(N(C)C)cc2)s1`, 2.9 µM. The result for `Cc1ccc(S(=O)(=O)/N=C2\C(=O)c3ccccc3C([O-])=C2n2cc[n+](CCC(C)C)c2)cc1` reads 16.7 µM; that for `CCOc1cc(C)c(S(=O)(=O)Nc2ccc3cn[nH]c3c2)cc1C`, 9.86 µM.

For the compound `CCS(=O)(=O)c1ncc(Cl)c(C(=O)Nc2ccc(S(=O)(=O)N3CCCC(C)C3)cc2)n1` (configuration not stated), the AC50 is 6.96 µM. The result for `CCc1c(C)sc2nc(C(C)C)nc(SCC(=O)N3CCc4ccccc4C3)c12` reads 2.08 µM; that for `O=C1C(Cl)=C(NCc2cccnc2)C(=O)c2ccccc21`, 14.3 µM; that for `CC1CC(C)CN(S(=O)(=O)c2ccc(C(=O)NCCCn3ccnc3)cc2)C1` (configuration not stated), 0.577 µM.

Consider `Cc1[nH]n(-c2ccccc2)c(=O)c1/C=N/NC(=O)c1cccc(F)c1`, for which the AC50 was 4.23 µM. In the case of `Cc1ccc(NC(=O)C2CCN(S(=O)(=O)c3ccc4c(c3)NC(=O)C(C)S4)CC2)cc1Cl` (configuration not stated) it was 4.64 µM; in that of `CCN(c1ccccc1)S(=O)(=O)c1ccc(C(=O)NC2CCN(Cc3ccccc3)CC2)cc1`, 6.36 µM; in that of `CC(=O)c1c(C)oc2c1C(=O)c1ccccc1C2=O`, 14.4 µM. The result for `CCCC(=O)NC(c1ccccc1)c1ccc2cccnc2c1O` (configuration not stated) reads 2.85 µM; that for `COc1ccc(CCNc2ccc(C(CC(N)=O)NC(=O)c3ccc(Br)cc3)cc2[N+](=O)[O-])cc1` (configuration not stated), 16.8 µM; that for `Cc1nc2ccccc2n1-c1nc(-c2ccco2)cc(C(F)(F)F)n1`, 1.86 µM.
